Assay results from article PMC8580066 (2021).

Tests used:
[1] = test system: c-Myc (DNA, G4) TGAGGGTGGGTAGGGTGGGTAA; test: thiazole orange displacement (TO-FID); details: K+ 100 mM; 10 mM Tris-HCl, pH 7.3; thiazole orange 2 μM displaced; DNA 1 μM; helicene 0-20 μM
[2] = test system: c-Myc (DNA, G4) TGAGGGTGGGTAGGGTGGGTAA; test: fluorescence titration, simple binding model; details: K+ 100 mM, 10 mM lithium cacodylate, pH 7.3, stoichiometry fixed, equivalent stereoisomers, per site
[3] = test system: c-Myc (DNA, G4) TGAGGGTGGGTAGGGTGGGTAA; test: fluorescence titration, competitive binding model; details: K+ 100 mM, 10 mM lithium cacodylate, pH 7.3, 32% and 96% ee samples, helicene 6 μM, per site
[4] = test system: BCL2 (BCL2Mid) (DNA, G4) GGGCGCGGGAGGAATTGGGCGGG; test: fluorescence titration, competitive binding model; details: K+ 100 mM, 10 mM lithium cacodylate, pH 7.3, 32% and 96% ee samples, helicene 6 μM, per site
[5] = test system: HTG4 (DNA, G4) AGGGTTAGGGTTAGGGTTAGGG; test: fluorescence titration, competitive binding model; details: K+ 100 mM, 10 mM lithium cacodylate, pH 7.3, 32% and 96% ee samples, helicene 6 μM, per site

SMILES	DC50 [1] [µM]	Kd [2] [µM]	Kd ([3]; KM from simultaneous fit of 0%) [µM]	Kd ([3]; KP from simultaneous fit of 0%) [µM]	Kd ([4]; KM from simultaneous fit of 0%) [µM]	Kd ([4]; KP from simultaneous fit of 0%) [µM]	Kd ([5]; KM from simultaneous fit of 0%) [µM]	Kd ([5]; KP from simultaneous fit of 0%) [µM]	Kd ([2]; helicene 4 μM constant) [µM]
c1ccc2c3c(ccc2c1)N(CCN1CCOCC1)c1cccc2c1c-3c1c3ccccc3ccc1[n+]2CCN1CCOCC1	6.0	3.8							
OCCN1c2ccc3ccccc3c2-c2c3c1cccc3[n+](CCO)c1ccc3ccccc3c21	4.4	4.7	3.8	4.7	5.1	7.5	6.2	7.5	
CCCN1c2ccc3ccccc3c2-c2c3c1cccc3[n+](CCC)c1ccc3ccccc3c21	3.8								0.7
